Two compounds from patent US8828982B2, “Pyrimidine derivatives for the prevention of HIV infection” (Janssen Pharmaceutica N.V., priority 2003, dated 2014) can be followed below.

The EC50 is the concentration that produces a half-maximal response. Usually pIC50 stands for −log10 of the IC50, conventionally taken in molar units. Higher therefore signals a small IC50.

Holding throughout (format): cell-based
The subject of test [1] is monotropic HIV strain Ba-L. Put plainly: In vitro model c) (standard infection experiment), MO-DC/CD4(+) T cell co-cultures, ELISA for HIV antigens after 14 days. The note with it: concentration suppressing 50% of viral replication at end of primary culture (14 days), test compound present throughout, MOI 10^-3. Here is the method:
Monocyte-derived dendritic cells (MO-DC) were infected for 2 hours with the monotropic HIV strain Ba-L at a multiplicity of infection (MOI) of 10^−3. After infection, cells were washed 6 times and resuspended in 10% BCS at 400.000 cells/ml. Autologous CD4(+) T cells were purified out of the lymphocyte fraction of the same elutration as the MO-DC and used at a concentration of 2×10^6 cells/ml ((ratio MO-DC/CD4(+) T: 1/5).
A serial dilution of a compound of formula (I) (test compound) was added to the MO-DC/CD4(+) T cell co-cultures. Each experiment was done in 96-well plates, in which each cup contained 50 μl of MO-DC, 50 μl of CD4(+) T cells and 100 μl of test compound. Half of the culture medium, with test compound, was refreshed twice weekly, during 14 days. Supernatants were analysed by ELISA after 14 days of culture for the presence of HIV antigens. To determine antiviral activity, the test compound concentration able to suppress 50% of the viral replication at the end of the primary cultures (EC50) was measured.
For orientation: An ELISA detects its analyte on a solid surface through an enzyme-linked reagent.

In test [2] the test system is MO-DC/CD4(+) T cell co-cultures (MO-DC stimulators, allogenic CD4(+) T cells responders). Put plainly: Immune suppressive activity in mixed leucocyte culture (MLC), standard assay. The note with it: concentration inhibiting 50% of [methyl-3H]-Thymidine incorporation, 5 days of culture, compound present throughout, read-out: ISC50 (nM) (Test B, standard assay)). As for the experimental part: The compounds of formula (I) were tested for their immune-suppressive activity (defined as ISC50 value) in a classical MLC in which monocyte-derived dendritic cells (MO-DC) were used as stimulators and allogenic CD4(+) T cells as responders. A dilution series of test compound was added to the MO-DC/CD4(+) T cell co-cultures. After 5 days of culture, 20 μl of [methyl-3H]-Thymidine was added to each well and cultures were harvested after 7 hours. Analysis was done on a Topcount scintillation counter. The immune suppressive concentration (ISC50) is defined as the test compound concentration inhibiting 50% of normal immune proliferation (test compound concentration inhibiting 50% of [methyl-3H]-Thymidine incorporation). (standard MLC assay)
(Dividing cells build labelled thymidine or BrdU into new DNA.)

A further test deals with HIV strain Ba-L. Put plainly: In vitro model b) (24 hour infection experiment), MO-DC co-cultured with autologous T4 cells. As for the experimental part: Monocyte-derived dendritic cells (MO-DC) were co-cultured with autologous T4 cells and infected with HIV strain Ba-L at a multiplicity of infection (MOI) of 10^−3. A serial dilution of test compound was added at the time of infection. After 24 hours, 96-well plates were washed 3 times (test compound and free virus washed away) and medium (without test compound) was added. Half of the medium was refreshed twice a week. Culture supernatants were harvested after 7 and 14 days of culture. After 14 days, cultures were washed 3 times and PHA/IL-2 stimulated PBMC were added for a secondary culture to check for viral rescue. During secondary culture, half of the medium was refreshed twice weekly (IL-2 medium, without test compound). Supernatants were harvested after 1 and 2 weeks of secondary culture. After 2 weeks of secondary culture, cells were also harvested for PCR analysis. Supernatants were analysed in ELISA for the presence of HIV […] during primary and secondary culture.

In test [3] the test system is MO-DC/CD4(+) T cell co-cultures (MO-DC stimulators, allogenic CD4(+) T cells responders). The experiment in a line: Immune suppressive activity in mixed leucocyte culture (MLC), 24 hour assay. The note with it: test compound present only during first 24 hours of the 5-day culture; read-out: ISC50 (nM) (Test B, 24 hour assay)). Here is the method: The compounds of formula (I) were tested for their immune-suppressive activity (defined as ISC50 value) in a classical MLC in which monocyte-derived dendritic cells (MO-DC) were used as stimulators and allogenic CD4(+) T cells as responders.
A dilution series of test compound was added to the MO-DC/CD4(+) T cell co-cultures. After 5 days of culture, 20 μl of [methyl-3H]-Thymidine was added to each well and cultures were harvested after 7 hours. Analysis was done on a Topcount scintillation counter. The immune suppressive concentration (ISC50) is defined as the test compound concentration inhibiting 50% of normal immune proliferation (test compound concentration inhibiting 50% of [methyl-3H]-Thymidine incorporation). (standard MLC assay)
For the 24 hour assay, the test compound was only present during the first 24 hours of the 5-day culture period. After 24 hours, the cultures were washed (three times) and culture medium without compound was added. The experimental set-up was from then on similar to the standard MLC assay described above.

For another test, the system named is HIV. Put plainly: HIV replication inhibition test of "C. Pharmacological example" of WO 2003/016306. The note with it: test described in WO 2003/016306. The text has this: Due to their antiretroviral properties, particularly their anti-HIV properties, especially their anti-HIV-1-activity, the compounds of formula (I), their N-oxides, pharmaceutically acceptable addition salts, quaternary amines and stereochemically isomeric forms thereof, are useful in the treatment of individuals infected by HIV. The HIV replication inhibiting effect of the compounds of formula (I) is described in WO 2003/016306. Compound 255 has a pIC50 value of 9.00 when tested in the test described under the heading “C. Pharmacological example” of WO 2003/016306.

Molecules are shown by their SMILES.

In test [1] (Human immunodeficiency virus 1, BAL, T-cell, 336 h), `Cc1cc(/C=C/c2ccncc2)cc(C)c1Nc1ccnc(Nc2ccc(C#N)cc2)n1` [Compound 162] had an EC50 of 5.5 nM. The IC50 in test [2] (Leucocyte, 120 h) stood at 1140 nM.

`Cc1cc(/C=C/C#N)cc(C)c1Oc1ccnc(Nc2ccc(C#N)cc2)n1` [Compound 255, 4-[[4-[4-(2-cyanoethenyl)-2,6-dimethylphenoxy]-2-pyrimidinyl]amino]benzonitrile (E)]: the EC50 in test [1] is 0.05 nM; in the test with HIV strain Ba-L (test compound added at time of infection and washed away after 24 hours, MOI 10^-3), 2 nM. Besides, the IC50 stood at 20200 nM in test [2] and 24600 nM in test [3]. The “cups tested positive in ELISA after 7 days of primary culture” value in the test with HIV strain Ba-L (concentrations ranging from 10,000 to 10 nM, 6 cups) is listed as “none out of 6”. The compound also gave a pIC50 in the test on HIV of 9.00.
